In patent US5051417A, “Indolythiadiazines for treating heart failure” (Les Laboratoires Beecham S.A., priority 1988, dated 1991):

Key:
canine cardiac PDE, CGI = target: T1, canine cardiac PDE, CGI (Canis lupus familiaris, UniProt A0A8I3NYE0); test: Canine cardiac PDE inhibition, CGI; assay type: biochemical; conditions: n in table
T1 construct: CANINE CARDIAC PDE; from tissue; host or cells: dog heart
T1 sequence (A0A8I3NYE0 1-1135): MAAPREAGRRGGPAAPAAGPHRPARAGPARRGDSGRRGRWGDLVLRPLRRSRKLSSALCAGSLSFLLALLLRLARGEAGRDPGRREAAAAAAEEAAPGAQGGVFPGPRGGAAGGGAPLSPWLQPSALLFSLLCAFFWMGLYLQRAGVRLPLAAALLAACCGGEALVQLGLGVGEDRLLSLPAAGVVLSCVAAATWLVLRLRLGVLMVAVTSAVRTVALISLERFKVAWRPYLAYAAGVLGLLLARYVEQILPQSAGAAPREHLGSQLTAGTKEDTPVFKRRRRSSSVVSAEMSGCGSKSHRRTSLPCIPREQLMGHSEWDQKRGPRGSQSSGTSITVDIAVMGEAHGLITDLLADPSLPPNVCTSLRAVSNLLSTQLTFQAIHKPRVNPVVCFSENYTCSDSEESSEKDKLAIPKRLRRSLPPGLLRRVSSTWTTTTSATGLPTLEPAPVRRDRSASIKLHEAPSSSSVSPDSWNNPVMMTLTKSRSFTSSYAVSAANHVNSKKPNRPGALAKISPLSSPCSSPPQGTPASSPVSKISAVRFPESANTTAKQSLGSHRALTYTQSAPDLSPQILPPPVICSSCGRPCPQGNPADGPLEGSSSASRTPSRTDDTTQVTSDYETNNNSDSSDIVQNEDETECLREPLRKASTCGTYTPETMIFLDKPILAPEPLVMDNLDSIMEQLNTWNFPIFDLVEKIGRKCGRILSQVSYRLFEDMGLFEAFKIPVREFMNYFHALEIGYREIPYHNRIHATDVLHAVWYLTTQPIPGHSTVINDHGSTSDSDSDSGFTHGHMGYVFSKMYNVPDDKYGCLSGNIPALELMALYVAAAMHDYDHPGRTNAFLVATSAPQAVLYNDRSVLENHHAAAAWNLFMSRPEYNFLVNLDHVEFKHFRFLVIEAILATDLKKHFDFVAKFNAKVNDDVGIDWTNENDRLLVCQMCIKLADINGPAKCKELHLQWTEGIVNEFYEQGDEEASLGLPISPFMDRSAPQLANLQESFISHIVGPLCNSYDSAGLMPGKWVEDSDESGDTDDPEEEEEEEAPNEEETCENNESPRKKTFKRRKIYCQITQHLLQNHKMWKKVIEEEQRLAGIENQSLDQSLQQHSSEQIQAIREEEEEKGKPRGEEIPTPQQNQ

canine cardiac PDE, CAM = test: Canine cardiac PDE inhibition, CAM; assay type: biochemical; conditions: n in table
anaesthetised dog = test: Cardiotonic activity in the dog (haemodynamics); assay type: in vivo, dog (male Beagle); conditions: i.v.

IC50 (canine cardiac PDE, CGI): 130 nM
IC50 (canine cardiac PDE, CAM): > 300 µM
Compound: CC1SC(=O)NN=C1c1ccc2c(c1)C(=NNc1ccccc1)C(=O)N2 (stereo not drawn) [Example 5, 5-(3,6-Dihydro-6-methyl-2-oxo-2H-1,3,4-thiadiazin-5-yl)-1H -indole-2,3-dione 3-phenylhydrazone]
AoBF (anaesthetised dog; 0.1 mg/kg): -25 ± 1%
AoBP (anaesthetised dog; 0.1 mg/kg): -14 ± 6%
H.R. (anaesthetised dog; 0.1 mg/kg): +8 ± 1%
dP/dt Max (anaesthetised dog; 0.1 mg/kg): +7 ± 2%
AoBF (anaesthetised dog; 0.3 mg/kg): -34 ± 5%
AoBP (anaesthetised dog; 0.3 mg/kg): -12 ± 3%
H.R. (anaesthetised dog; 0.3 mg/kg): +18 ± 7%
dP/dt Max (anaesthetised dog; 0.3 mg/kg): +24 ± 6%
AoBF (anaesthetised dog; 1.0 mg/kg): -28 ± 4%
AoBP (anaesthetised dog; 1.0 mg/kg): -12 ± 1%
H.R. (anaesthetised dog; 1.0 mg/kg): +19 ± 16%
dP/dt Max (anaesthetised dog; 1.0 mg/kg): +42 ± 16%
AoBF (anaesthetised dog; 3.0 mg/kg): -37 ± 2%
AoBP (anaesthetised dog; 3.0 mg/kg): -19 ± 3%
H.R. (anaesthetised dog; 3.0 mg/kg): +58 ± 0%
dP/dt Max (anaesthetised dog; 3.0 mg/kg): +116 ± 31%
